Source: paper PMC7195871 (ACS synthetic biology, 2018)

Assays:
[1] = target: T1, PCM-F (pivalyl-CoA mutase fusion protein) (Xanthobacter versatilis, UniProt A7IQE5+A7IQE6); assay: mutase conversion assay in crude E. coli lysate; type: biochemical; settings: vitamin B12-dependent mutase; without G-protein chaperone
T1 sequence (A7IQE5 1-559): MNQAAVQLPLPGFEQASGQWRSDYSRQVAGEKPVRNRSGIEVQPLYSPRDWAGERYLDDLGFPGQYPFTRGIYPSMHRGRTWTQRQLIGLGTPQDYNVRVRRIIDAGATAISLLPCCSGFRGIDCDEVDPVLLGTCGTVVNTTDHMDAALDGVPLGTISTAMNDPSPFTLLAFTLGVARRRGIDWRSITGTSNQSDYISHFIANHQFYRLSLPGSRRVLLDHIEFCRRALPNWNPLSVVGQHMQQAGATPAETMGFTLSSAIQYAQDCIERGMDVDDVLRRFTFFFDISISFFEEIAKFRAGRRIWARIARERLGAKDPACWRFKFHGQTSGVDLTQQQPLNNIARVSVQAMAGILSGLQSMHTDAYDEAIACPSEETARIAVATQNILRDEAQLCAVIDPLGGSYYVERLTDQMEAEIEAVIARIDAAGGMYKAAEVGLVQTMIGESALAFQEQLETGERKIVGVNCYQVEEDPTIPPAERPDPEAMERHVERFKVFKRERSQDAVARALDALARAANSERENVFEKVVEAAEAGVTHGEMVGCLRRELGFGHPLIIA
T1 sequence (A7IQE6 1-148): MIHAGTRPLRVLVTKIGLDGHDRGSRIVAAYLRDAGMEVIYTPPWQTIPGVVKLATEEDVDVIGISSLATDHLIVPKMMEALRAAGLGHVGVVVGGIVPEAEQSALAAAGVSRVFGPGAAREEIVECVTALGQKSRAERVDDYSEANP

Ralstonia sp. ADH = target: T2, Ralstonia sp. ADH (Ralstonia sp. DSMZ 6428, UniProt C0IR58); assay: alcohol dehydrogenase assay, aldehyde reduction; type: biochemical; settings: reduction of pivaldehyde to pivalcohol
T2 sequence (C0IR58 1-249): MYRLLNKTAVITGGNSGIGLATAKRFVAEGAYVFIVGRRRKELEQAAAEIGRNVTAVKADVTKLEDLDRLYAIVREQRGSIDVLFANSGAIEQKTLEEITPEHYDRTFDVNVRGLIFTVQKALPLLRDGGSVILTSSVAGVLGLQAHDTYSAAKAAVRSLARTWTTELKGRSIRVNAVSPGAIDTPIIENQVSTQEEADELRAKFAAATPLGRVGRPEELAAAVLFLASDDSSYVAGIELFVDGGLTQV

Row | Structure (SMILES) | mutase conversion assay in crude E. coli lysate [1] | alcohol dehydrogenase assay, aldehyde reduction (Ralstonia sp. ADH)
1 | CC(C)CC(=O)SCCNC(=O)CCNC(=O)[C@H](O)C(C)(C)COP(=O)(O)OP(=O)(O)OC[C@H]1O[C@@H](n2cnc3c(N)ncnc32)[C@H](O)[C@@H]1OP(=O)(O)O [isovaleryl-CoA] | significant activity in converting isovaleryl-CoA to pivalyl-CoA in crude cell lysates | 
2 | CC(C)(C)C=O [pivaldehyde] |  | Ralstonia sp. ADH showed the highest activity toward pivaldehyde
3 | CC(C)(C)C(=O)SCCNC(=O)CCNC(=O)[C@H](O)C(C)(C)COP(=O)(O)OP(=O)(O)OC[C@H]1O[C@@H](n2cnc3c(N)ncnc32)[C@H](O)[C@@H]1OP(=O)(O)O [pivalyl-CoA] | significant activity in converting isovaleryl-CoA to pivalyl-CoA in crude cell lysates | 
